From US6436419B1, “Antimicrobial treatment of polymers” (The Regents of the University of California, priority 1998, dated 2002)

How the values were obtained:
[1] = Add-on rates of quaternary ammonium salts on dyed and undyed nylon fabrics and weight loss after Launder-Ometer washing; type: physicochemical; details: for Add-on rate after 7 washes (%): Launder-Ometer, AATCC test method 61; for Total weight loss after the + 7 washes (%): after finishing and 7 Launder-Ometer washes
Procedure: Nylon fabrics were dyed with 1% on weight fabric (o.w.f.) dye solutions at 95° C. for 90 min. The liquor ratio was 1:50, and the pH of the dye bath was adjusted to pH=3.5 with acetic acid. The dyed fabrics were washed with the AATCC standard detergent after dyeing and then cured at 120° C. for 15 minutes.
The antibacterial finishing baths were prepared by dissolving quaternary ammonium salts in distilled water. The pH value was adjusted to pH=4 with acetic acid. The dyed nylon fabric was dipped in the antibacterial agent solution, padded to a wet pick up of about 60% and cured at an elevated temperature for an extended period.
The finished fabric was washed in a Launder-Ometer, according to AATCC Test Method 61-1994 to evaluate the washing durability. One cycle of Launder-Ometer washing test by this AATCC Test Method is equivalent to about five machine washes in a home laundry practice.
The nylon fabrics were first dyed with two different acid dyes at concentration of 1% on weight fabric (o.w.f) and then treated with the quaternary ammonium salts.
The weight loss of a fabric sample is calculated based on its total weight change after the finishing and washing.

[2] = as above; type: physicochemical; details: 6% quaternary salt solution, pH = 3.7, cured 120° C. 30 minutes
[3] = nylon fabric dyed with Acid Blue 113 1% owf
[4] = nylon fabric dyed with Acid Red 88 1% owf

| Structure (SMILES) | Add-on rate after 7 washes (%) ([1]; Undyed nylon fabric) | Total weight loss after the + 7 washes (%) ([1]; Undyed nylon fabric) | Add-on rate after 7 washes (%) [1, 3] | Total weight loss after the + 7 washes (%) [1, 3] | Add-on rate after 7 washes (%) [1, 4] | Total weight loss after the + 7 washes (%) [1, 4] | Add-on rate (%) ([2]; Undyed nylon fabric) | Add-on rate (%) [2, 3] | Add-on rate (%) [2, 4] |
| --- | --- | --- | --- | --- | --- | --- | --- | --- | --- |
| CCCCCCCCCCCC[N+](C)(C)C.[Br-] [DTAB, Dodecyltrimethyl ammonium bromide] | −3.51% | −1.00% | −3.48% | 0.28% | −3.39% | −0.04% | 2.51% | 3.86% | 3.35% |
| CCCCCCCCCCCC[N+](C)(C)CC(O)C[N+](C)(C)CCCCCCCCCCCC.[Cl-].[Cl-] [Dimer, 1,3-Bis-(N,N-dimethyldodecylammonium chloride)-2-propanol] | −3.20% | −0.47% | −2.54% | −0.25% | −3.08% | −0.09% | 2.73% | 2.29% | 2.99% |
| CCCCCCCCCCCC[N+](C)(C)CC(O)CCl.[Cl-] (stereo not drawn) [Monomer, N-(3-chloro-2-hydroxypropyl)-N,N-dimethyldodecylammonium chloride] | −1.81% | −0.73% | −2.44% | −0.43% | −1.87% | −0.09% | 1.08% | 2.01% | 1.78% |
